Common to all, as to assay type: cell-based
In one experiment the test system is Pseudomonas aeruginosa. As to the kind of experiment: Preservative challenge test in cleanser base, plate count. The settings on record: inoculum about 1×10^5 to 1×10^6 cfu/mL, about 22° C., TN = too numerous to count; for Day-7 Plate Count, PA: 7 days after challenge; for Day-14 Plate Count, PA: 14 days after challenge. As for the experimental part: (§1) Several 200-gram samples of a cleanser base were admixed with a variety of preservative compositions, and challenged with selected bacteria and fungi (Escherichia coli, Pseudomonas aeruginosa, Staphylococcus aureus, Aspergillus niger, and Candida albicans) according to the following procedure:
(§2) About 0.5 mL of an aqueous suspension containing about 1×10^6 to about 2×10^7 colony forming units-per-milliliter (cfu/mL) of Aspergillus niger in a pH 7.2 phosphate buffer was transferred to a tube containing about 9.5 mL of a sample of a cleanser base composition to provide an inoculum level of about 1×10^5 to about 1×10^6 cfu/mL. The same procedure was used to challenge samples of the cleanser base with Candida albicans and with a mixed culture of Escherichia coli, Pseudomonas aeruginosa, and Staphylococcus aureus, at about the same inoculum levels. The challenged samples were stored at an ambient room temperature of about 22° C. At 7 days and 14 days after challenge, aliquots from each sample were diluted according to the following procedure: about 1 mL of each challenged sample was aseptically transferred into a tube containing about 9 mL of Dey/Engley (D/E) neutralizing broth with thorough mixing to provide a dilution ratio of about 1:10. About […] of each of the 1:10 diluted samples was then aseptically transferred into separate tubes, each tube containing about 9 mL of sterile buffered saline solution, (3.5 g/L phosphoric acid in 0.9 wt. % NaCl solution, adjusted to pH 7.2 with 50 wt. % aqueous sodium hydroxide), with thorough mixing, to provide a dilution ratio of about 1:1000.
(§3) Finally, each of the 1:10 diluted samples and each of the 1:1000 diluted samples were plated according to the following procedure: about 1 mL of each of the diluted samples was plated with Letheen agar (bacteria samples) or Sabouraud dextrose agar (yeast and mold samples). The Letheen agar plates were incubated at 35±2° C. for about 48 hours (about 2 days) in an inverted position, and the resulting microbial colonies were counted. The Sabouraud dextrose agar plates were incubated at 25±2° C. for about 120 hours (about 5 days) in an upright position and the resulting microbial colonies were counted.
(§4) The formulations of the cleanser base and the D/E Neutralizing Broth used in these evaluations are provided in Table 1 and Table 2, respectively.

The next experiment has as its system Aspergillus niger. Described as above. The settings on record: inoculum about 1×10^5 to 1×10^6 cfu/mL, about 22° C.; for Day-7 Plate Count, AN: 7 days after challenge; for Day-14 Plate Count, AN: 14 days after challenge. As for the experimental part: as §1, §2, §3, §4
A further experiment relates to Candida albicans. Described as above. The settings on record: inoculum about 1×10^5 to 1×10^6 cfu/mL, about 22° C.; for Day-7 Plate Count, CA: 7 days after challenge; for Day-14 Plate Count, CA: 14 days after challenge, TN = too numerous to count. As for the experimental part: as §1, §2, §3, §4
For the next experiment, the system named is Escherichia coli. Described as above. The settings on record: inoculum about 1×10^5 to 1×10^6 cfu/mL, about 22° C., TN = too numerous to count; for Day-7 Plate Count, EC: 7 days after challenge; for Day-14 Plate Count, EC: 14 days after challenge. As for the experimental part:
as §1, §2, §3, §4

A further experiment concerns Staphylococcus aureus. Described as above. The settings on record: inoculum about 1×10^5 to 1×10^6 cfu/mL, about 22° C.; for Day-7 Plate Count, SA: 7 days after challenge; for Day-14 Plate Count, SA: 14 days after challenge. How it is done: as §1, §2, §3, §4
The next experiment relates to A. niger 16404. As to the kind of experiment: Minimum Inhibitory Concentration (MIC) evaluation, broth dilution. The settings on record: Mueller-Hinton broth, two-fold dilutions, about 35° C. for about 24 hours, visible growth. As for the experimental part: (§5) In this evaluation, nutrient broth solutions were made with different concentrations of the test compounds, and then all the solutions were spiked with the same concentration of test organism. Growth was indicated by a solution becoming hazy after 24 hours of incubation time. The highest dilution without observable growth is the Minimal Inhibitory Concentration (MIC).
(§6) The following procedure was adopted from the Manual of Clinical Microbiology, 2nd Ed. published by the American Society for Microbiology, ISBN 0-914826-00-X.
(§7) Prepare and sterilize Mueller-Hinton Broth (MH broth) (Fluka) per the manufacturer's instructions (dissolve 23 grams in one liter water and autoclave at 121° C. for 15 minutes minimum).
(§8) The stock antimicrobial solution is diluted (in MH broth) to twice the highest final test concentration desired. Sterile 13×100 mm screw-capped culture tubes are used. Two-fold dilutions are made directly in the tubes. To the first tube is added 2 mL of the working solution of antimicrobial agent. To each remaining tube is added 1 mL of broth. Using aseptic technique, an amount of 1 mL is transferred from the first tube to the second tube and is thoroughly mixed. After thorough mixing, 1 mL is transferred from the second tube to the third tube. This process is repeated through the second to last tube, from which 1 mL is removed and discarded. The final tube receives no antimicrobial agent and serves as a growth control.
(§9) Buffered saline (3.5 g/L phosphoric acid in a 0.9% NaCl solution, pH adjusted to 7.2 with 50 wt. % aqueous NaOH, sterilized by autoclave).
(§10) The organisms are preferably lyophilized Microbiologics E^power E7 microorganisms (mean assay value of between 10 million and 100 million colony forming units or equivalent concentration). The final concentrations of the microorganism in the inoculum should be in the order of 10^6-10^7 cfu/mL.
(§11) 1. Allow unopened vial of microorganism pellets to equilibrate to room temperature.
(§12) 2. Warm 1 tube of 10 mL buffered saline per organism used to about 35-37° C.
(§13) 3. Using sterile forceps, transfer 2 pellets to the saline and return unused pellets to storage.
(§14) 4. Incubate the hydrated material at about 35-37° C. for about 30 minutes.
(§15) 5. Vortex the vials until homogeneous.
(§16) 6. Add 1.0 ml of the diluted culture suspension to each of the previously prepared tubes containing the preservative compositions. The final concentration of preservative is now one-half of the original concentration in each tube.
(§17) All tubes were incubated at about 35° C. for about 24 hours. The tubes were then examined for visible signs of bacterial growth.
(§18) The MIC values from Table 5 were then used to calculate the Fractional Inhibitory Concentration Index (FICI) (sometimes called the Synergy Index) of GCM and GCP versus the various individual test organisms using the following equation. FICI=(MICa/MICA)+(MICb/MICB)

In another experiment the test system is S. aureus 6538. The description is as above. The settings on record: Mueller-Hinton broth, two-fold dilutions, about 35° C. for about 24 hours, visible growth. As for the experimental part: as §5, §6, §7, §8, §9, §10, §11, §12, §13, §14, §15, §16, §17, §18
Another experiment relates to P. aeruginosa 9027. The description is as above. The settings on record: Mueller-Hinton broth, two-fold dilutions, about 35° C. for about 24 hours, visible growth. As for the experimental part:
as §5, §6, §7, §8, §9, §10, §11, §12, §13, §14, §15, §16, §17, §18

This note sets out measurements from patent US8367079B2, “Liquid preservative compositions” (Rhodia Operations, priority 2008, dated 2013).

As for `Cn1sccc1=O` [Ex. B, 2-methyl-4-isothiazolin-3-one], in the experiment with Pseudomonas aeruginosa, the “Day-7 Plate Count, PA” value is 115 cfu and the “Day-14 Plate Count, PA” value is reported as below 10 cfu. Further, in the experiment with Aspergillus niger, the “Day-7 Plate Count, AN” value stood at 1000 cfu and the “Day-14 Plate Count, AN” value was 500 cfu. For the same compound, in the experiment with Candida albicans, the “Day-7 Plate Count, CA” value came to 10500 cfu and the “Day-14 Plate Count, CA” value is listed as 15000 cfu. Moreover, in the experiment with Escherichia coli, the “Day-7 Plate Count, EC” value worked out at 155 cfu and the “Day-14 Plate Count, EC” value is on record as 10 cfu. In the experiment with Staphylococcus aureus, the “Day-7 Plate Count, SA” value is listed as 215 cfu and the “Day-14 Plate Count, SA” value was determined as 6500 cfu.
On to `OCCc1ccccc1` [Ex. D, phenethyl alcohol], for which, in the experiment with Pseudomonas aeruginosa, the “Day-7 Plate Count, PA” value is 10 cfu and the “Day-14 Plate Count, PA” value amounted to 1000 cfu. In the experiment with Aspergillus niger, the “Day-7 Plate Count, AN” value was 25 cfu and the “Day-14 Plate Count, AN” value is on record as below 10 cfu. In the experiment on Candida albicans, the “Day-7 Plate Count, CA” value was found to be 91000 cfu and the “Day-14 Plate Count, CA” value is on record as 2000 cfu. In addition, in the experiment with Escherichia coli, the “Day-7 Plate Count, EC” value is reported as 380 cfu and the “Day-14 Plate Count, EC” value was 1000 cfu. In the experiment on Staphylococcus aureus, the “Day-7 Plate Count, SA” value is 7500 cfu and the “Day-14 Plate Count, SA” value is given as 1000 cfu.
As for `O=C([O-])c1ccccc1.[Na+]` [Ex. E, sodium benzoate], in the experiment on Aspergillus niger, the “Day-7 Plate Count, AN” value is 1500 cfu and the “Day-14 Plate Count, AN” value was determined as 3500 cfu. The “Day-7 Plate Count, CA” value with Candida albicans was determined as 336500 cfu. Also, in the experiment with Staphylococcus aureus, the “Day-7 Plate Count, SA” value is given as 9000 cfu and the “Day-14 Plate Count, SA” value turned out to be 500 cfu.
On to `OCCc1ccccc1` [PEA, phenethyl alcohol], for which the “MIC Values, A. niger” value in the experiment with A. niger 16404 came out at 1.0%. Also, the “MIC Values, S. aureus” value in the experiment on S. aureus 6538 is 0.9%. Moreover, the “MIC Values, P. aeruginosa” value in the experiment with P. aeruginosa 9027 was 0.9%.
Turning to `CCCCCCCC(=O)OCC(O)CO` (centres unmarked) [Ex. C, glyceryl caprylate], in the experiment on Pseudomonas aeruginosa, the “Day-7 Plate Count, PA” value is 7500 cfu and the “Day-14 Plate Count, PA” value stood at 117500 cfu. In addition, in the experiment on Aspergillus niger, the “Day-7 Plate Count, AN” value is given as 1000 cfu and the “Day-14 Plate Count, AN” value worked out at 280 cfu. Further, in the experiment with Candida albicans, the “Day-7 Plate Count, CA” value turned out to be 500 cfu and the “Day-14 Plate Count, CA” value is 485 cfu. Also, in the experiment on Escherichia coli, the “Day-7 Plate Count, EC” value is 15 cfu and the “Day-14 Plate Count, EC” value was found to be 10 cfu. For the same compound, in the experiment with Staphylococcus aureus, the “Day-7 Plate Count, SA” value is below 10 cfu and the “Day-14 Plate Count, SA” value was 1000 cfu.
With `CCCCCCCC(=O)OCC(O)CO` (centres unmarked) [GC, glyceryl caprylate], the “MIC Values, A. niger” value in the experiment on A. niger 16404 came to 2.0%. Moreover, the “MIC Values, S. aureus” value in the experiment with S. aureus 6538 is 1.0%. Further, in the experiment with P. aeruginosa 9027, the “MIC Values, P. aeruginosa” value is on record as 1.0%.
Regarding `Cn1sccc1=O` [MI, 2-methyl-4-isothiazolin-3-one], the “MIC Values, A. niger” value in the experiment with A. niger 16404 is recorded as 0.1%. Moreover, the “MIC Values, S. aureus” value with S. aureus 6538 was 0.1%. In addition, the “MIC Values, P. aeruginosa” value in the experiment with P. aeruginosa 9027 worked out at 0.008%.
